Patent US20230399339A1, “HETEROCYCLIC AMIDE DERIVATIVE, PREPARATION METHOD THEREFOR, AND APPLICATION THEREOF” (SHENZHEN ZHONGGE BIOLOGICAL TECHNOLOGY CO., LTD., priority 2021, published 2023)

Target: T1, EP4 receptor (Homo sapiens, UniProt P35408)
T1 construct: expressed in transfected cells; host or cells: Flpin-CHO-EP4 cells (Flp-In CHO host, Chinese hamster ovary)
Experiment: Antagonist activity against EP4 receptor by cAMP assay
Format: cell-based
Details: Flpin-CHO-EP4 cells, PGE2-stimulated cAMP; initial concentration 50 nM, dilution times 4
Experimental: (a) Antagonist Activity Against EP4 Receptor by cAMP Assay:
Experiment Methods: Inoculating Flpin-CHO-EP4 cells (8000 cells/well) into a 384-well plate (6007680-50, PE) with an assay buffer (1×HBSS+20 mM HEPES+0.1% BSA+500 μM IBMX). Preparing 8× compound working solution with the assay buffer. Adding 2.5 μL of the 8× compound working solution to each well in the cell plate according to the plate map and incubating at 37° C. for 10 min. Preparing 8×PGE2 (400 nM) with the assay buffer. Adding 2.5 μL of the 8×PGE2 per well in the cell plate and incubating at 37° C. for 30 min. Diluting the Eu-cAMP tracer (1/50) with a lysis buffer and adding 10 μL per well in the test plate. Diluting Ulight-anti-cAMP (1/150) with a lysis buffer and adding 10 μL per well in the test plate. Incubating at room temperature for 1 h. Reading wavelength signal values at 665 nm and 615 nm on the Envision 2105 plate reader.

T1 sequence (P35408 whole entry): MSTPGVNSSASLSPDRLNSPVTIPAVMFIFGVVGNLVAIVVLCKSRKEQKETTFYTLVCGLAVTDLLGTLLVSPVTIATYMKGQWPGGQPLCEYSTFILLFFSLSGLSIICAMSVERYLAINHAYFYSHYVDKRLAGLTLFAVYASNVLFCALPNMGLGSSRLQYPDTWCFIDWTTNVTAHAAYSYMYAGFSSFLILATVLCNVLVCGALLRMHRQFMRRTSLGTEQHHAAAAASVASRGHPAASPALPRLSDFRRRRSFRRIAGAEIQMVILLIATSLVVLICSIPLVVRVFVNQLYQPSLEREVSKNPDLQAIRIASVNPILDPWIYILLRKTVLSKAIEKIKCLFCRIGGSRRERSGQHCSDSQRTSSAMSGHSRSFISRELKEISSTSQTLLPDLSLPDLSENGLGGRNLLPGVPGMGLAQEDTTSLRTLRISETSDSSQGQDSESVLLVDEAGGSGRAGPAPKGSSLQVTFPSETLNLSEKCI

IC50 [nM]	Compound
0.351	Cc1sc2ccn(Cc3ccc(C(F)(F)F)cc3)c2c1C(=O)NC1(c2ccc(C(=O)O)cc2)CC1 [Control compound]
0.122	Cc1sc2ccn(Cc3ccc(S(F)(F)(F)(F)F)cc3)c2c1C(=O)NC1(c2ccc(C(=O)O)cc2)CC1 [Example 1, 4-(1-{[2-methyl-4-(4-(pentafluorothio)benzyl)-4H-thieno[3,2-b]pyrrole-3-carbonyl]amino}-cyclopropyl)carboxylic acid]
